Reference: paper PMC8234803, “In Vitro Metabolism of Six C-Glycosidic Flavonoids from Passiflora incarnata L” (International Journal of Molecular Sciences, 2021)
Entries after “also recorded” stand apart in the source; their conditions may differ.

Experiments:
[1] = Stability testing in test buffer (HBSS pH 6.0) under assay conditions, HPLC-DAD; type: physicochemical; settings: 10 µM in HBSS pH 6.0, 37 °C, 5% CO2
Description: To guarantee the stability of all test substances during the metabolism assay on Caco-2 cells, they were incubated in the test buffer under assay conditions. Test samples were collected each hour for 5 h and were measured via HPLC-DAD.
To ensure stability during the Caco-2 metabolism experiments, all test substances were dissolved in DMSO to a concentration of 20 mM and diluted to 10 µM in an appropriate volume of HBSS (pH 6.0), resulting in a DMSO concentration of less than 1%. The test solution (1 mL) was aliquoted into a 12-well Transwell® plate and incubated for 5 h in an atmosphere of 5% CO2 and 90% relative humidity at 37 °C. Test samples (100 µL) were collected after t = 0, 1, 2, 3, 4, and 5 h and measured via HPLC-DAD. The peak area of the test substance at time t = 0 h was defined as 100%, and all other peak areas were related to calculate the proportional stability. The stability was calculated as % = area/area0 × 100. Stability testing was performed on three independent days with freshly prepared solutions (n = 3).
The system consisted of the following: Elite LaChrom with an L2200 autosampler, L2130 pump, L2350 column oven, L2444 DAD, and EZChrom Elite 3.1.7 software (Hitachi, Tokyo, Japan); column: Kinetex® Biphenyl, 100 Å, 250-4.6 mm (5 µm, same material precolumn; Phenomenex, Torrance, CA, USA); injection volume 30 µL; oven temp.: 25 °C; autosampler temp.: 10 °C; detection wavelength: 340 nm; flow: 1.2 mL/min; A = H2O + 0.1% TFA, B = acetonitrile + 0.1% TFA; gradient: 0–2 min 10% B, 2–10 min 10% B → 100% B, 10–11 min 100% B → 10% B, 11–15 min 10% B.

Caco-2 cells = experiment: MTT assay under metabolic conditions (cell viability); type: cell-based, human; settings: 10, 25, 50, 75, 100 µM in HBSS (pH 6.0), 5 h incubation
Description: (§1) All six substances were tested in five different dilutions in HBSS (pH 6.0). The determined viability values of O, IO, S, IS, V, and IV are listed in the Supplementary Materials (Figure S2).
(§2) Caco-2 cells in the logarithmic growth phase were seeded in 96-well plates at a density of 3 × 10^4 cells/well and incubated at 37 °C in an atmosphere of 5% CO2 and constant moisture in an incubator. After 24 h, the cell culture medium was removed, and 100 µL of HBSS solution (negative control), 0.5% DMSO in HBSS solution (solvent control), or flavonoid samples in HBSS solution (6 flavonoids at concentrations of 10, 25, 50, 75, and 100 µM) was applied in quintuplicate and incubated for 5 h. Afterwards, the HBSS solutions were removed and replaced with an MTT solution in DMEM (0.4 mg/mL) and incubated for another 3 h at 37 °C. Then, the MTT solution was discarded, and the cells were fixed with a 10% SDS solution in PBS and stored at room temperature in the dark. After 24 h, the absorbance was measured on a Tecan microplate reader (Tecan Trading AG, Switzerland) at 560 nm. The viability rate was calculated as % = A/A0 × 100, with A as the average absorbance value of the treatment and solvent control groups and A0 as the average absorbance value of the negative control group. The assay was performed three times in pentaplicate.
(§3) The human colon adenocarcinoma cell line Caco-2 was obtained from the ATCC (American Type Culture Collection, Manassas, VA, USA). The cell line was determined to be free of mycoplasma contamination by PCR and culture from GATC Biotech AG (Konstanz, Germany). The cells were cultured in DMEM supplemented with 10% (v/v) FBS, 1% (v/v) NEAA, and 1% (v/v) antibiotics (penicillin/streptomycin) in an atmosphere of 5% CO2 and 90% relative humidity at 37 °C. The culture medium was replaced every 3 days, and the cells were split 1:5 using trypsin-EDTA once 90% confluence was obtained.

[2] = as above; type: cell-based, human; settings: human, 5 h incubation, read-out: Viability of Caco-2 cells
Description: as §1, §2, §3

Caco-2 cell monolayer = experiment: Caco-2 monolayer metabolism experiment, metabolites identified via UHPLC-DAD-MS(/MS); type: in vitro ADME, human; settings: for Metabolites of the aglycones (cleavage of the C–C glycosidic bond): 100 µM approach; for Possible metabolite (phase II metabolite identified by MS/MS fragmentation and comparison with reference compound after enzymatic hydrolysis): glucuronidase/sulfatase cleavage, UHPLC-DAD-MS/MS; for Extent of phase I and II metabolism (in words): independent of incubation time and concentration
Description: To obtain information on the in vitro metabolism of the six tested C-glycosidic flavonoids in the intestine, experiments were carried out using the Caco-2 monolayer model (Figure 2). Metabolite profiles were characterized at two different concentrations (10 and 100 µM; n = 3) and after two different incubation times (3 or 5 h; n = 3) in order to determine the influence of concentration and time on the metabolism reactions that occurred. Furthermore, to analyze the distribution of the observed metabolites, samples were collected from the cell lysate and the apical and basolateral compartments. All samples of the metabolism experiments using the Caco-2 cell monolayer were analyzed using UHPLC-DAD-MS and UHPLC-DAD-MS/MS. Metabolites were identified by libraries that were prepared for each compound (Tables S1–S6). The O and IO libraries contained 67 metabolites (Tables S1 and S2), the S and IS libraries contained 106 metabolites (Tables S3 and S4), and the V and IV libraries contained 71 possible metabolites (Tables S5 and S6).
To form a confluent and differentiated monolayer, cells at passages 16–45 were seeded into the inserts of 12-well Transwell® plates at a density of 3.0 × 10^5 cells/cm^2. Afterwards, the culture medium was replaced every day, and the metabolism experiment was performed 21 days after seeding. The apical and basolateral compartments contained 0.5 and 1.5 mL of cell culture medium, respectively.
On day 21, the cell culture medium was removed from the apical and basolateral compartments, and the Caco-2 cell monolayer was washed two times with prewarmed HBSS. The Transwell® plates containing HBSS were incubated at 37 °C for 15 min to measure the transepithelial electrical resistance (TEER) value. The integrity of the cell monolayers was evaluated by TEER values between the apical and basolateral sides with the Evohm2 system (World Precision Instruments, Sarasota, FL, USA). The cell inserts were only used for the metabolism experiments if the resistance exceeded 350 Ω/cm^2. The six test substances were dissolved in DMSO to a stock solution of 20 mM. The HBSS was adjusted to pH 6.0 and 7.4 with 1 M HCl. Afterwards, the stock solutions were diluted to 10 or 100 µM in an appropriate volume of HBSS (pH 6.0) to obtain a DMSO concentration of <1%. The test solutions were added to the apical side (0.5 mL), while the basolateral side was filled with 1.5 mL of HBSS (pH 7.4). The Transwell® plates were incubated at 37 °C for 3 or 5 h, respectively. After this period, solutions from the apical and basolateral compartments were collected in separate tubes, washed twice with 500 µL of HBSS, and then collected again. The samples were lyophilized and stored at −20 °C until they were measured using UHPLC-DAD-MS. After the experiment, Transwell® inserts were apically (0.5 mL) and basolaterally (1.5 mL) filled with HBSS and warmed to 37 °C for 20 min. Then, the TEER values were measured to guarantee the integrity of the monolayer during the experiment. The experiment was performed in triplicate for each substance, concentration, and incubation time.
After the metabolism experiment, cell monolayers were washed twice with PBS and incubated with 200 µL of trypsin-EDTA for 10 min at 37 °C in an atmosphere of 5% CO2 and constant humidity in the incubator. The cells were removed from the well by pipetting up and down, and were collected in a tube. The well was washed twice with PBS (1 mL), and the wash solution was also collected in the corresponding tube. The mixture was centrifuged (1000× g rpm, 5 min), and the supernatant was discarded.

[3] = initial concentration 10 µM, 3 h, apical compartment
[4] = initial concentration 10 µM, 5 h, apical compartment
[5] = initial concentration 100 µM, 3 h, apical compartment
[6] = initial concentration 100 µM, 3 h, basolateral compartment
[7] = initial concentration 100 µM, 5 h, apical compartment

Compound	Stability (content relative to t = 0 h) ([1]; after 3 h of incubation)	Effect on the viability of Caco-2 cells (in words) (Caco-2 cells)	Extent of metabolism (in words) (Caco-2 cell monolayer; 10 µM, 3 and 5 h)	Metabolites of the aglycones (cleavage of the C–C glycosidic bond) (Caco-2 cell monolayer)	Extent of metabolism (in words) (Caco-2 cell monolayer; 100 µM, 3 and 5 h)	Extent of phase I and II metabolism (in words) (Caco-2 cell monolayer)	Possible metabolite detected (Caco-2 cell monolayer; [3])	Possible metabolite detected (Caco-2 cell monolayer; [4])	Possible metabolite detected (Caco-2 cell monolayer; [5])	Possible metabolite detected (Caco-2 cell monolayer; [6])	Possible metabolite detected (Caco-2 cell monolayer; [7])	further results
O=c1cc(-c2ccc(O)cc2)oc2cc(O)c([C@@H]3O[C@H](CO)[C@@H](O)[C@H](O)[C@H]3O)c(O)c12 [IV, isovitexin]	96%	slight, concentration-dependent reductions	broader ranges of phase I and II metabolites	metabolites of the corresponding aglycones apigenin and luteolin were also detected	extensive metabolism	highly metabolized in phase I and II reactions	Hydroxy-methoxy-isovitexin; also recorded: Hydroxy-apigenin-sulfate; also recorded: Hydroxy-methoxy-apigenin	Hydroxy-methoxy-isovitexin; also recorded: Hydroxy-dimethoxy-isovitexin; also recorded: Hydroxy-apigenin-sulfate	Hydroxy-apigenin-sulfate; also recorded: Hydroxy-dimethoxy-isovitexin; also recorded: Hydroxy-methoxy-apigenin; also recorded: Hydroxy-methoxy-isovitexin	Hydroxy-dimethoxy-isovitexin	Hydroxy-methoxy-isovitexin; also recorded: Hydroxy-apigenin-sulfate; also recorded: Hydroxy-dimethoxy-isovitexin; also recorded: Hydroxy-methoxy-apigenin	Stability (content relative to t = 0 h) ([1]; after 5 h incubation): 95%; viability at 5 h, 10 µM ([2]; Caco-2, 10 µM in HBSS (pH 6.0)): 92%; viability at 5 h, 100 µM ([2]; Caco-2, 100 µM in HBSS (pH 6.0)): 82%; Possible metabolite (phase II metabolite identified by MS/MS fragmentation and comparison with reference compound after enzymatic hydrolysis) (Caco-2 cell monolayer): Methoxy-luteolin-sulfate
O=c1cc(-c2ccc(O)c(O)c2)oc2c([C@@H]3O[C@H](CO)[C@@H](O)[C@H](O)[C@H]3O)c(O)cc(O)c12 [O, orientin]	approximately 100%	no significant effects at any concentration	broader ranges of phase I and II metabolites	metabolites of the corresponding aglycones apigenin and luteolin were also detected	extensive metabolism	highly metabolized in phase I and II reactions	Orientin-sulfate; also recorded: Hydroxy-methoxy-orientin	Orientin-sulfate; also recorded: Methoxy-orientin	Orientin-sulfate; also recorded: Hydroxy-luteolin-glucuronide; also recorded: Methoxy-luteolin; also recorded: Hydroxy-methoxy-orientin	Orientin-sulfate	Orientin-sulfate; also recorded: Hydroxy-luteolin-glucuronide; also recorded: Hydroxy-methoxy-orientin	Possible metabolite (phase II metabolite identified by MS/MS fragmentation and comparison with reference compound after enzymatic hydrolysis) (Caco-2 cell monolayer; metabolite at RT 3.146 min, m/z 527.0499): O-sulfate; Possible metabolite (phase II metabolite identified by MS/MS fragmentation and comparison with reference compound after enzymatic hydrolysis) (Caco-2 cell monolayer; metabolite at RT 5.134 min, m/z 477.0674): Quercetin-glucuronide; Possible metabolite (phase II metabolite identified by MS/MS fragmentation and comparison with reference compound after enzymatic hydrolysis) (Caco-2 cell monolayer; metabolite at RT 5.476 min, m/z 461.0724): Luteolin-glucuronide; Possible metabolite detected (Caco-2 cell monolayer; initial concentration 10 µM, 3 h, basolateral compartment): Orientin-sulfate; also recorded: Hydroxy-methoxy-orientin; Possible metabolite detected (Caco-2 cell monolayer; initial concentration 100 µM, 5 h, cell lysate): Methoxy-orientin
schaftoside	approximately 100%	no significant effects at any concentration	very limited metabolism	–	a few hydroxylated and methoxylated derivatives	poorly metabolized in phase I and II reactions	Hydroxy-methoxy-schaftoside	Hydroxy-methoxy-schaftoside	Hydroxy-methoxy-schaftoside	Hydroxy-methoxy-schaftoside	Hydroxy-methoxy-schaftoside	Phase II conjugates containing glucuronic acid or sulfates (Caco-2 cell monolayer; 10 µM, 3 and 5 h): No phase II conjugates containing glucuronic acid or sulfates were detectable; Phase II metabolites with glucuronic acid or sulfates (Caco-2 cell monolayer; 100 µM, 3 and 5 h): lacked the presence of phase II metabolites with glucuronic acid or sulfates
